# Laboratory results as given in patent US20230117831A1, “MULTI-FUNCTIONAL CHIMERIC MOLECULES” (THE BROAD INSTITUTE, INC., priority 2020, published 2023).
# Legend:
# [1] = target: PKCα (Homo sapiens, UniProt P17252); test: ADP-Glo kinase activation, CREBtide peptide; assay type: biochemical; parameters: GST; purchased SignalChem P61-18G
# Procedure: ADP-Glo assay was performed with PHICS (PKC) in a similar manner with some modifications as follows. In a 96 well plate (white, flat bottom), similar concentration series of PHICS (2.1, 2.2, 2.3, 2.4 and 2.5) were prepared using same kinase assay buffer and incubated with 2 ng of PKC, 0.2 μg/μL CREBtide peptide and 50 μM ATP for 1 hr at room temperature before incubation with ADP-Glo assay reagents.
# [2] = target: PKC delta (Homo sapiens, UniProt Q05655); conditions: PKC delta; read-out: Kd; cited from earlier work
# [3] = target: T1, PKC epsilon (Homo sapiens, UniProt Q02156); conditions: PKC epsilon; read-out: Kd; cited from earlier work
# T1 sequence (Q02156 1-737): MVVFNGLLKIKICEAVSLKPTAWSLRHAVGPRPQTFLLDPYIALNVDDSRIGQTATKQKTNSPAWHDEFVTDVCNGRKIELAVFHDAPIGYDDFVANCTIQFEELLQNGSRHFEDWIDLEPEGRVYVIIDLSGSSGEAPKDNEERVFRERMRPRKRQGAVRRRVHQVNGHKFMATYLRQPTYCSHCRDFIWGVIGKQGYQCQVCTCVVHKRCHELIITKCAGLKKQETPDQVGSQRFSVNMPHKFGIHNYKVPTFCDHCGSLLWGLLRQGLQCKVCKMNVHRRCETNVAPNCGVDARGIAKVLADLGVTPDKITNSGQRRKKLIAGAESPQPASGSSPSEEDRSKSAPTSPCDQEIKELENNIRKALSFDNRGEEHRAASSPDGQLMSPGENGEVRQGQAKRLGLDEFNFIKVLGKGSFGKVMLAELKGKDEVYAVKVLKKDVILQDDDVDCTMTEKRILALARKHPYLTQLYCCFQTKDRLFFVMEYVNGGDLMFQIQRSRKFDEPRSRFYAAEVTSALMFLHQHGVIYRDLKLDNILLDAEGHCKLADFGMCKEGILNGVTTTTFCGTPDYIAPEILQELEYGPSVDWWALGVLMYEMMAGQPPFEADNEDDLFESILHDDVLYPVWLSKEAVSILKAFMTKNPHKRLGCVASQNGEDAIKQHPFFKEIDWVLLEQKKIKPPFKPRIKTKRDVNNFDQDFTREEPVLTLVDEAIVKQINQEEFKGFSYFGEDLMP
# [4] = test system: breast carcinoma cell lines MCF-7 and MDA-MB-231; conditions: cited from earlier work
# [5] = target: PKC beta (Homo sapiens, UniProt P05771); conditions: PKC beta; read-out: Kd; cited from earlier work
# [6] = target: PKCalpha (Homo sapiens, UniProt P17252); conditions: PKC alpha; read-out: Kd; cited from earlier work
# [7] = target: PKC gamma (Homo sapiens, UniProt P05129); conditions: PKC gamma; read-out: Kd; cited from earlier work
# [8] = target: BRAF (Homo sapiens, UniProt P15056); conditions: cited from earlier work
# [9] = target: RET (Homo sapiens, UniProt P07949); conditions: cited from earlier work
# [10] = target: BTK (Homo sapiens, UniProt Q06187); conditions: cited from earlier work
# [11] = target: LYN [isoform a] (Homo sapiens, UniProt P07948); conditions: cited from earlier work
# [12] = target: T2, DDR2 (Homo sapiens, UniProt Q16832); conditions: cited from earlier work
# T2 sequence (Q16832 22-855): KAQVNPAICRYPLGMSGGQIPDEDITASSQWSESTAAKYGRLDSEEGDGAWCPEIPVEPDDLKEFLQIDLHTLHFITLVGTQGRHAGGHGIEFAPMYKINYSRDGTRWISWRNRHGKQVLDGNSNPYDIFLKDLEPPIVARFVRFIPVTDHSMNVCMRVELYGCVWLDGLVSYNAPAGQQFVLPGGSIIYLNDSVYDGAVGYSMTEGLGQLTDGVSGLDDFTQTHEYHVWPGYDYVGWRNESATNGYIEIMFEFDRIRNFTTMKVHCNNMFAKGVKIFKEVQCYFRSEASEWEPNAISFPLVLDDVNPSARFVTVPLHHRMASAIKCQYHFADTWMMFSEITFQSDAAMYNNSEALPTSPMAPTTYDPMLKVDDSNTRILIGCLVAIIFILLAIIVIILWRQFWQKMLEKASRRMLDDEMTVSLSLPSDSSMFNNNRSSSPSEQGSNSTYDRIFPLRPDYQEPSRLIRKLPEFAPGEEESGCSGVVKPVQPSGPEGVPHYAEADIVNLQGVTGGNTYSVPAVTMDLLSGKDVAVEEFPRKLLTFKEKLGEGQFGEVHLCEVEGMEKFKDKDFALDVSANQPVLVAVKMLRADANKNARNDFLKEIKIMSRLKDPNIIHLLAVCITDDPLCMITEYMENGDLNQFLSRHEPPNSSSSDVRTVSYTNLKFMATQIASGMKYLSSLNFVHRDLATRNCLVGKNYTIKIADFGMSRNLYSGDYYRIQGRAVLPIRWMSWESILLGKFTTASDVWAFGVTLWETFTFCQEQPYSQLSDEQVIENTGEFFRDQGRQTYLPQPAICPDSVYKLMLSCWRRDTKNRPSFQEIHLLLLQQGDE
# [13] = target: FGFR1 (Homo sapiens, UniProt P11362); conditions: cited from earlier work
# [14] = target: FYN [isoform a] (Homo sapiens, UniProt P06241); conditions: cited from earlier work
# [15] = target: TIE2 (Homo sapiens, UniProt Q02763); conditions: cited from earlier work
# TIE2, sequence (Q02763 23-1124, species assumed): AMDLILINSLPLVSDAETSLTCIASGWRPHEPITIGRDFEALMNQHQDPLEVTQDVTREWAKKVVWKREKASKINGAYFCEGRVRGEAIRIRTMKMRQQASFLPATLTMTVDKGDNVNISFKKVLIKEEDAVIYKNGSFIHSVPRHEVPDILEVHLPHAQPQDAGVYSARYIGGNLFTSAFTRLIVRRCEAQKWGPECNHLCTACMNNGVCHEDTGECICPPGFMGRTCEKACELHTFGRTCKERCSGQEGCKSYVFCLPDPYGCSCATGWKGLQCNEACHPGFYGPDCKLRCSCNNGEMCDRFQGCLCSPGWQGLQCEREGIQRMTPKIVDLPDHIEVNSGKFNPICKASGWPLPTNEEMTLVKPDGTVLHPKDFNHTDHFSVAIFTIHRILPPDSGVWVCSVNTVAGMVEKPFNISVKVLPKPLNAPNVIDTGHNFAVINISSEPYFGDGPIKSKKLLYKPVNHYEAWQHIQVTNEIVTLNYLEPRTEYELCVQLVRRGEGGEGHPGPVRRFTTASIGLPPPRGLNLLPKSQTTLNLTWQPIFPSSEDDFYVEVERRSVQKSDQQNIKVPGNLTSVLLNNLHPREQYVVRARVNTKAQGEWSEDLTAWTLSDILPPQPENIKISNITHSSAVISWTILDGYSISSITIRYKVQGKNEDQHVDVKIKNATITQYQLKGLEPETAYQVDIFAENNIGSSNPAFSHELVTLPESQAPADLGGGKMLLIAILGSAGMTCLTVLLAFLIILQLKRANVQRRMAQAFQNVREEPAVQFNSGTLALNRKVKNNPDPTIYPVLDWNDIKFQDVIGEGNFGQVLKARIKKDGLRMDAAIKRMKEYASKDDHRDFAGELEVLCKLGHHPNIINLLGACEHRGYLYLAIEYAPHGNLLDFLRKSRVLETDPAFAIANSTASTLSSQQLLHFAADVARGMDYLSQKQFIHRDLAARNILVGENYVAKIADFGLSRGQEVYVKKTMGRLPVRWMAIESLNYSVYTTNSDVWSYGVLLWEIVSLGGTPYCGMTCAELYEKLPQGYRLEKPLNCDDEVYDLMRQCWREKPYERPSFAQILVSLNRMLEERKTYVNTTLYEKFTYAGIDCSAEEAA
# RET, sequence (P07949 29-1114, species assumed): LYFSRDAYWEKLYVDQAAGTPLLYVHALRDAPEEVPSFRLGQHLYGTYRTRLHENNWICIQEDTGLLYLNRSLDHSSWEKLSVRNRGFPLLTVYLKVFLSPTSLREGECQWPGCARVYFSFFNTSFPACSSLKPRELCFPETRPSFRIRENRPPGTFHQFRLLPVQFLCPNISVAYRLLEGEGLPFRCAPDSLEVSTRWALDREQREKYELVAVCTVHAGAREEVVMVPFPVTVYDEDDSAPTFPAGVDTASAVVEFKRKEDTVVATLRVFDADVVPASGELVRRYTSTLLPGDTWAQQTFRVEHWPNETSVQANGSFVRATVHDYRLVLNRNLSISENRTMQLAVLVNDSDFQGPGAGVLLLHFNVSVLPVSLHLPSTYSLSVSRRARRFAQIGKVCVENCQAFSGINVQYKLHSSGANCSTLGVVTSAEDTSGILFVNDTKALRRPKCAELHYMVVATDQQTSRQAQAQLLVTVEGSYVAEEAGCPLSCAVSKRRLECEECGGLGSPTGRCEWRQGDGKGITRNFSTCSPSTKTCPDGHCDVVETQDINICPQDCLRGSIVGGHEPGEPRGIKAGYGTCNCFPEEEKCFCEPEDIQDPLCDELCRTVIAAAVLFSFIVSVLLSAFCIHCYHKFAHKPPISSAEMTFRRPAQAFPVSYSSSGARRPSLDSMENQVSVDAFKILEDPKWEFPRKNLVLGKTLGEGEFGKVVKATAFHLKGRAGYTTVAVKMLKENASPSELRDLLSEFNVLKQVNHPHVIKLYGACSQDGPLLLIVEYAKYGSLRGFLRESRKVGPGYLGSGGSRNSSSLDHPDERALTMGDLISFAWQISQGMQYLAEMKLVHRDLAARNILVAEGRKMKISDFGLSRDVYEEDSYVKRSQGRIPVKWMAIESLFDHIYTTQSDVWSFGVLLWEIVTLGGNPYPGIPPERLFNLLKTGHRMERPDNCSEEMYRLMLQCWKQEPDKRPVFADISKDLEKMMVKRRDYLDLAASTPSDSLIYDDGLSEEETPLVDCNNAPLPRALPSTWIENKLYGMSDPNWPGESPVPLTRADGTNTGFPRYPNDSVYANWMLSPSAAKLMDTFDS
# LYN [isoform a], sequence (P07948 whole entry, canonical isoform): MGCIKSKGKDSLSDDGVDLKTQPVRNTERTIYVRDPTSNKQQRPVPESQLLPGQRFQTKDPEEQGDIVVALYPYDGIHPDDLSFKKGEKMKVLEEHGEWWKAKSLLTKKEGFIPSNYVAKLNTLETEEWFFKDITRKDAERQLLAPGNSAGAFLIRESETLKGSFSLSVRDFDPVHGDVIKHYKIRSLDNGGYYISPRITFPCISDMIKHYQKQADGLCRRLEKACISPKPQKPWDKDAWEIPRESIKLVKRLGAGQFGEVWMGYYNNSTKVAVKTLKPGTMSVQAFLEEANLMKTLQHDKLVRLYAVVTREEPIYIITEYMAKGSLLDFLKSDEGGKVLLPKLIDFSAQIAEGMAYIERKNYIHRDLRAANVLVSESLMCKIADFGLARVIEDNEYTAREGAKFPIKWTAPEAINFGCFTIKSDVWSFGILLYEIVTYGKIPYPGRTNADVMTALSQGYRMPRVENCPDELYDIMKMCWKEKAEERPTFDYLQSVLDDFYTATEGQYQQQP
# FGFR1, sequence (P11362 22-822, species assumed): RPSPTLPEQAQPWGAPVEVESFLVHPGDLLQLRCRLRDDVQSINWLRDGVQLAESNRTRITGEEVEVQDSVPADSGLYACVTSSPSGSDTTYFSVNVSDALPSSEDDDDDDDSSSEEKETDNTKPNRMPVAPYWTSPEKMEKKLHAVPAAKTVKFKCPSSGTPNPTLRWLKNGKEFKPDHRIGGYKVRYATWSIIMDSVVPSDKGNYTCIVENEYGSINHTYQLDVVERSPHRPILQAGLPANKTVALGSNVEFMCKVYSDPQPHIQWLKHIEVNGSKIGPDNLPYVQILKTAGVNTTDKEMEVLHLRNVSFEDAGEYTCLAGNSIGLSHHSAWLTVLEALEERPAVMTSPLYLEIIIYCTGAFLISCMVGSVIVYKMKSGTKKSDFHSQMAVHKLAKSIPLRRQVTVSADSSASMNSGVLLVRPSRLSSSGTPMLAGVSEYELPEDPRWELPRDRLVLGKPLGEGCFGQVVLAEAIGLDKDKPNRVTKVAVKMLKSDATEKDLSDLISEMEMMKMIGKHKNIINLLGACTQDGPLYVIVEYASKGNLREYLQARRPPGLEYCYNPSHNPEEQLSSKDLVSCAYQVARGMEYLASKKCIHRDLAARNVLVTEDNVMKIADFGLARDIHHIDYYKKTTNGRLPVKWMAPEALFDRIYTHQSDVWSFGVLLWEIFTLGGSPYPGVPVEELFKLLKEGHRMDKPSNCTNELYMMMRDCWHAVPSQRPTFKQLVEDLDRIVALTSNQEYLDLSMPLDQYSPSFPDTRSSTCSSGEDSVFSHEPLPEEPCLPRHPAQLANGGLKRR
# FYN [isoform a], sequence (P06241 whole entry, canonical isoform): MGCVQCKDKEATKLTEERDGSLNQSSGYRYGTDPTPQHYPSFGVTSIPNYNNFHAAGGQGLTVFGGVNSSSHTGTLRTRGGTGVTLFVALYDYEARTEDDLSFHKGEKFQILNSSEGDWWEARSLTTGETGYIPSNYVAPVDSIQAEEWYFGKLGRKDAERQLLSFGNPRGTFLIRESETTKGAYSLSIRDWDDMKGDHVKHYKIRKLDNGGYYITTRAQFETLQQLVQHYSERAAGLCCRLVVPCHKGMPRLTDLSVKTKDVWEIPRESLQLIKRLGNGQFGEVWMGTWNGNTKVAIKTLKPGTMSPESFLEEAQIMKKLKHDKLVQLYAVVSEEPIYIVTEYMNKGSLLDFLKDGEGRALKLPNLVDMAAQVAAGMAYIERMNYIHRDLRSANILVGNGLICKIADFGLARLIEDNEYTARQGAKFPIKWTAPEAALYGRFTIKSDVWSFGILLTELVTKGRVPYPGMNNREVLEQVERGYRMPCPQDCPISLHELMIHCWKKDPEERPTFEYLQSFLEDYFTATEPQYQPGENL
# BTK, sequence (Q06187 whole entry, species assumed, canonical isoform): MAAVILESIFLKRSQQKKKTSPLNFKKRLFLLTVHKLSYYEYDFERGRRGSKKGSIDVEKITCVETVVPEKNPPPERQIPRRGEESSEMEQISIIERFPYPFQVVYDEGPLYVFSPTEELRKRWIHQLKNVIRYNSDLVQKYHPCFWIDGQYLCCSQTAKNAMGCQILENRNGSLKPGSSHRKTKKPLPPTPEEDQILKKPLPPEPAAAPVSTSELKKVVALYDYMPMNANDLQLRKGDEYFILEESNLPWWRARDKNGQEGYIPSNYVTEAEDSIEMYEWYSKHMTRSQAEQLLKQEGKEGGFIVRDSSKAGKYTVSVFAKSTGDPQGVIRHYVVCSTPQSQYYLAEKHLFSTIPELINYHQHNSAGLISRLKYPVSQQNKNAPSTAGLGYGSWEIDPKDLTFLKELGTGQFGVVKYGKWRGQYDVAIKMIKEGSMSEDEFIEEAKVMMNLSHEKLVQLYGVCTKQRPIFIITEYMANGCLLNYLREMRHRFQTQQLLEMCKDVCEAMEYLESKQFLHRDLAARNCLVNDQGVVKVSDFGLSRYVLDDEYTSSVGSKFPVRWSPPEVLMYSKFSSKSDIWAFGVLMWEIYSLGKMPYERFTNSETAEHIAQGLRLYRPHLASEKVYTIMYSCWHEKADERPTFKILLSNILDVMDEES
compound,measurement,setting,value
Cc1sc2c(c1C)C(c1ccc(Cl)cc1)=NC(CC(=O)NCCCCCC(=O)NCc1ccc(COc3ccc4c(c3)N(C)[C@@H](C(C)C)C(=O)N[C@H](CO)C4)cc1)c1nnc(C)n1-2 (stereo partly drawn) [(R)-PHICS2.3],PKC activation (ADP-Glo),[1],still activated
CC(C)[C@H]1C(=O)N[C@H](CO)CCc2c[nH]c3cccc(c23)N1C,Kd,[2],8.2 nM
same,Kd,[3],21.9 nM
same,antiproliferative activity against breast carcinoma,[4],inactive against breast carcinoma
same,Kd,[5],6.1 nM
same,Kd,[6],11 nM
same,Kd,[7],19.4 nM
CC(C)(C)c1nc(-c2cccc(NS(=O)(=O)c3c(F)cccc3F)c2F)c(-c2ccnc(N)n2)s1 [Dabrafenib],ka,[8],467000 M⁻¹ s⁻¹
same,kd,[8],0.000288 s⁻¹
Cc1ccc(C(=O)Nc2ccc(CN3CCN(C)CC3)c(C(F)(F)F)c2)cc1C#Cc1cnc2cccnn12 [Ponatinib],ka,[9],118000 M⁻¹ s⁻¹
same,kd,[9],4.29e-05 s⁻¹
same,log(ka),[9],5.07
same,log(kd),[9],−4.37
same,ka,[10],21500 M⁻¹ s⁻¹
same,kd,[10],0.0168 s⁻¹
same,ka,[11],110000 M⁻¹ s⁻¹
same,kd,[11],5.4e-05 s⁻¹
same,log(ka),[11],5.04
same,log(kd),[11],−4.27
same,ka,[12],29800 M⁻¹ s⁻¹
same,kd,[12],0.00014 s⁻¹
same,log(ka),[12],4.47
same,log(kd),[12],−3.85
same,ka,[13],17900 M⁻¹ s⁻¹
same,kd,[13],0.000119 s⁻¹
same,log(ka),[13],4.25
same,log(kd),[13],−3.93
same,ka,[14],84900 M⁻¹ s⁻¹
same,kd,[14],8.93e-05 s⁻¹
same,log(ka),[14],4.93
same,log(kd),[14],−4.05
same,ka,[15],40200 M⁻¹ s⁻¹
same,kd,[15],0.00268 s⁻¹
same,log(ka),[15],4.60
same,log(kd),[15],−2.57
